Assay results as given in paper PMC5564600 (Oncotarget, 2017).

Legend:
Experiment in all cases: biochemical
Assay type in all cases: binding
panel of 442 kinases [1] = target: T1, panel of 442 kinases (Homo sapiens, UniProt Q9BZL6); settings: kinase PRKD2; for remaining activity at 1 µM: read-out: PRKD2 (% of control at 1 µM)
T1 construct: purchased Ambit Biosciences (scanMAXX KINOMEscan)
T1 sequence (Q9BZL6 1-878): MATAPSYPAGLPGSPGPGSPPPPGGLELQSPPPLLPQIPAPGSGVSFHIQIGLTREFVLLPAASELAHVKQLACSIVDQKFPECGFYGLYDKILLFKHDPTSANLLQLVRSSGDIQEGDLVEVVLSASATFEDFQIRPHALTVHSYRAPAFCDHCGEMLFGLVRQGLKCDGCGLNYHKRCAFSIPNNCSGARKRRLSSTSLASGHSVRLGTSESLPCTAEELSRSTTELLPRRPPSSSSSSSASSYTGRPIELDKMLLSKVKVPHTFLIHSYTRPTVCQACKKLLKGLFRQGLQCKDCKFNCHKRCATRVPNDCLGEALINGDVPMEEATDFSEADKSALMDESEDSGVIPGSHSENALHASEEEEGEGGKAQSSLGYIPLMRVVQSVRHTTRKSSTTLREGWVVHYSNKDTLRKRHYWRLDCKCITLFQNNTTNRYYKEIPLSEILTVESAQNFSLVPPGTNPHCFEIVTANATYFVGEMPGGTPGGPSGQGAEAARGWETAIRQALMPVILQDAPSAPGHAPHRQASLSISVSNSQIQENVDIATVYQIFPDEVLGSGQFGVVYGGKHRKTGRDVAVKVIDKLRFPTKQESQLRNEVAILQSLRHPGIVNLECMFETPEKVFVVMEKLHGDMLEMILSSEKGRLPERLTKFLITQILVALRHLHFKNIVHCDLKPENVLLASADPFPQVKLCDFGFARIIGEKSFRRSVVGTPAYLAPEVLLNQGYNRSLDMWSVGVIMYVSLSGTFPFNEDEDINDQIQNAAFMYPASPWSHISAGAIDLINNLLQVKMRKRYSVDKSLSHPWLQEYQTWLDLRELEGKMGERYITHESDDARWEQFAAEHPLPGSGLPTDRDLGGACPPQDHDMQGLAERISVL

panel of 442 kinases [2] = target: T2, panel of 442 kinases (Homo sapiens, UniProt Q9UKI8); settings: kinase TLK1; for remaining activity at 1 µM: read-out: TLK1 (% of control at 1 µM)
T2 construct: purchased Ambit Biosciences (scanMAXX KINOMEscan)
T2 sequence (Q9UKI8 1-766): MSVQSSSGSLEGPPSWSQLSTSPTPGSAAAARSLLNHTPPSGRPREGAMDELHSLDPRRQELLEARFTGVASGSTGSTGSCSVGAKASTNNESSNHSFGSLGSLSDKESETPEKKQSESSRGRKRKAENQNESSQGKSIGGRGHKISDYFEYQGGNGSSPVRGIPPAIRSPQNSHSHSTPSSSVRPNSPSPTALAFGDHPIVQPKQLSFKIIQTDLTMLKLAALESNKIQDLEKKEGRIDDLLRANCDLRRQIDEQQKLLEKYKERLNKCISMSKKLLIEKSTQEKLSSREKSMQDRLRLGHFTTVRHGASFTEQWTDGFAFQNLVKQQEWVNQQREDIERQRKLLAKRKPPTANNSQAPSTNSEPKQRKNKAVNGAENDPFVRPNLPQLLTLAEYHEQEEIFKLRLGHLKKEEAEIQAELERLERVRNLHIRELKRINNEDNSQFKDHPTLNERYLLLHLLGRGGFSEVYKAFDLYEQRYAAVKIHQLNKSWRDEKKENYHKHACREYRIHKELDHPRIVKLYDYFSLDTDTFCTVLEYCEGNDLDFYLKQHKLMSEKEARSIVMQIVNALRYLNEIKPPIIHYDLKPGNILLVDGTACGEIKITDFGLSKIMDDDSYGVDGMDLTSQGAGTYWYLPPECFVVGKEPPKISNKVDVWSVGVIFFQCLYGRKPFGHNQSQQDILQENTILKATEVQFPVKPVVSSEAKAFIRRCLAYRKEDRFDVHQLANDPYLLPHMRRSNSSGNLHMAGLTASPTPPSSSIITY

panel of 442 kinases [3] = target: T3, panel of 442 kinases (Homo sapiens, UniProt O14733); settings: kinase MKK7; for remaining activity at 1 µM: read-out: % of control at 1 µM
T3 construct: purchased Ambit Biosciences (scanMAXX KINOMEscan)
T3 sequence (O14733 1-419): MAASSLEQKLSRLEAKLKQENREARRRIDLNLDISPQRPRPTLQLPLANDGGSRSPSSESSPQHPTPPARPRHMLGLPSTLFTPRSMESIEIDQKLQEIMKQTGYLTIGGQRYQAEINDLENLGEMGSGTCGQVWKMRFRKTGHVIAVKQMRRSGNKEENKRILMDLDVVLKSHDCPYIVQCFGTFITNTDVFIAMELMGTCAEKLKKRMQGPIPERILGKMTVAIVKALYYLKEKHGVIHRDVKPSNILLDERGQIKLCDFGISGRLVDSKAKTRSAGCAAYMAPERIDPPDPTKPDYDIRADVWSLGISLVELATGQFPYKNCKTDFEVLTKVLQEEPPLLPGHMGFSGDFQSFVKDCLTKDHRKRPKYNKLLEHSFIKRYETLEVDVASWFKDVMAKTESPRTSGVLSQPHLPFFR

panel of 442 kinases [4] = target: T4, panel of 442 kinases (Homo sapiens, UniProt P07949, M918T); settings: kinase RET(M918T); for remaining activity at 1 µM: read-out: RET(M918T) (% of control at 1 µM)
T4 construct: purchased Ambit Biosciences (scanMAXX KINOMEscan)
T4 sequence (P07949 29-1114 M918T): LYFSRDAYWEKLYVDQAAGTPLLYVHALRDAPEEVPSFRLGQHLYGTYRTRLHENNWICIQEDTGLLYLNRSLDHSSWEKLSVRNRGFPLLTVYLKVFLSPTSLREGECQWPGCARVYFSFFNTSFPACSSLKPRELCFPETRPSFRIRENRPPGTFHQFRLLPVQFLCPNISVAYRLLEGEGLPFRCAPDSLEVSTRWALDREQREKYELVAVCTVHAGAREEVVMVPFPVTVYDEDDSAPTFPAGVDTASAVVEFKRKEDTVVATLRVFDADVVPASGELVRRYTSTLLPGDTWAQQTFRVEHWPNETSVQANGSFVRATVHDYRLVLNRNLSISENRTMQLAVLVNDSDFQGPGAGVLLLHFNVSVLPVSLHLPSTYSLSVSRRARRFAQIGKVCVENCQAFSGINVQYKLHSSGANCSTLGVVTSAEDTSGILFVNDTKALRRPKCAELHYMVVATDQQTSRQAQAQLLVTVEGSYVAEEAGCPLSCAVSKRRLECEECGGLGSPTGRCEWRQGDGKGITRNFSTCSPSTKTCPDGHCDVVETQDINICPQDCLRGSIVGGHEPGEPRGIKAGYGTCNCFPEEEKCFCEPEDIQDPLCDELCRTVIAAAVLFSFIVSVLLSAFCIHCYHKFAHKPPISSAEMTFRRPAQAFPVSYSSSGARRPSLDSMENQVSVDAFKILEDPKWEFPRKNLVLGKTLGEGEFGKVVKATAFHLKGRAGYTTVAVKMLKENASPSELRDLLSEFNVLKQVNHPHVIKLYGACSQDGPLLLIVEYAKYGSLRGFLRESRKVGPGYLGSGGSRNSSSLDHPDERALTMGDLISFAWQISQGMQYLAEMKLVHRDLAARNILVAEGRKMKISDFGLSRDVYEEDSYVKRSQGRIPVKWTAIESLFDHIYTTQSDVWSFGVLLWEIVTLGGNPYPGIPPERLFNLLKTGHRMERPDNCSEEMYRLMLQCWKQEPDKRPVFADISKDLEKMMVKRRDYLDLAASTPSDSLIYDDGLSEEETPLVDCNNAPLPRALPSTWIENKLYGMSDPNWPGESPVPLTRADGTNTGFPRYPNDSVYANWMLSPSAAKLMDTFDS

SMILES	remaining activity at 1 µM (panel of 442 kinases [1]) [%]	remaining activity at 10 µM (panel of 442 kinases [1]; 10 µM, read-out: PRKD2 (% of control at 10 µM)) [%]	remaining activity at 1 µM (panel of 442 kinases [2]) [%]	remaining activity at 10 µM (panel of 442 kinases [2]; 10 µM, read-out: TLK1 (% of control at 10 µM)) [%]	remaining activity at 1 µM (panel of 442 kinases [3]) [%]	remaining activity at 10 µM (panel of 442 kinases [3]; 10 µM, read-out: % of control at 10 µM) [%]	remaining activity at 1 µM (panel of 442 kinases [4]) [%]	remaining activity at 10 µM (panel of 442 kinases [4]; 10 µM, read-out: RET(M918T) (% of control at 10 µM)) [%]
Nc1cc(C(F)(F)F)c(-c2cc(N3CCOCC3)nc(N3CCOCC3)n2)cn1 [Buparlisib]	100	100	100	82	100	99	100	95
Cn1c(=O)n(-c2ccc(C(C)(C)C#N)cc2)c2c3cc(-c4cnc5ccccc5c4)ccc3ncc21 [Dactolisib, 2-methyl-2-[4-(3-methyl-2-oxo-8-quinolin-3-yl-2,3-dihydroimidazo[4,5-c]quinolin-1-yl)-phenyl] propionitrile]	93	–	75	–	100	–	100	–
COc1ncc(-c2ccc3nccc(-c4ccnnc4)c3c2)cc1NS(=O)(=O)c1ccc(F)cc1F [Omipalisib]	100	–	95	–	100	–	100	–
FC(F)c1nc2ccccc2n1-c1nc(N2CCOCC2)nc(N2CCOCC2)n1 [ZSTK474, 2-(difluoromethyl)-1-[4,6-di(4-morpholinyl)-1,3,5-triazin-2-yl]-1H-benzimidazole]	93	–	100	–	100	–	89	–
